Assay results published in PubChem BioAssay (NCI).
Where “and” joins values, the source holds several entries; their conditions need not be identical. Identical values can stand only once.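 Cultured in 96-well plates, cells were exposed to test compound for 48 hours across five concentrations. GI50 = concentration required for 50% inhibition of growth. TGI: concentration producing complete growth inhibition.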

Legend:
Assay in all cases: NCI-60 cell line screen, 48 h
SNB-19 CNS = tested on: SNB-19 CNS
HOP-92 NSCLC = tested on: HOP-92 NSCLC
OVCAR-5 ovarian = tested on: OVCAR-5 ovarian
NCI-H522 lung = tested on: NCI-H522 lung
OVCAR-4 ovarian = tested on: OVCAR-4 ovarian
RXF 393 renal = tested on: RXF 393 renal
SF-268 CNS = tested on: SF-268 CNS
EKVX NSCLC = tested on: EKVX NSCLC
SK-MEL-28 melanoma = tested on: SK-MEL-28 melanoma
SK-MEL-5 melanoma = tested on: SK-MEL-5 melanoma

SMILES	GI50 (SNB-19 CNS) [µM]	TGI (SNB-19 CNS)	GI50 (HOP-92 NSCLC) [µM]	TGI (HOP-92 NSCLC)	GI50 (OVCAR-5 ovarian) [µM]	TGI (OVCAR-5 ovarian)	GI50 (NCI-H522 lung) [µM]	TGI (NCI-H522 lung)	GI50 (OVCAR-4 ovarian) [µM]	TGI (OVCAR-4 ovarian)	GI50 (RXF 393 renal) [µM]	TGI (RXF 393 renal) [µM]	GI50 (SF-268 CNS) [µM]	TGI (SF-268 CNS)	TGI (EKVX NSCLC)	TGI (SK-MEL-28 melanoma)	GI50 (EKVX NSCLC) [µM]	GI50 (SK-MEL-28 melanoma) [µM]	GI50 (SK-MEL-5 melanoma) [µM]	TGI (SK-MEL-5 melanoma)
COC(=O)c1cc(Nc2ccc(O)c3c2C(=O)c2c([N+](=O)[O-])ccc(O)c2C3=O)cc(C(=O)OC)c1	22.2	> 100 µM	22	> 100 µM	26	> 100 µM	4.07	28.3 µM	3.99	> 100 µM	5.09	> 100	7.97	> 100 µM						
COc1cc2ccn3c4cc(OC)c(OC)cc4cc3c2cc1OC		> 100 µM		> 100 µM		> 100 µM		> 100 µM		> 100 µM				> 100 µM	> 100 µM	> 100 µM				
COc1ccc(C[C@H]2C[C@@H](O)[C@@H](C)C/C=C/Cc3cccc(O)c3C(=O)O2)cn1	38.9	> 100 µM			19	37.2 µM	14.2	49.1 µM	23.7	74.1 µM	30.5	> 100	15.9	53.5 µM	> 100 µM	78.7 µM	32.1	27.2	17.6	35.1 µM
Clc1ccc2c(Cl)ncnc2c1		> 100 µM		> 100 µM		> 100 µM		> 100 µM		> 100 µM				> 100 µM	> 100 µM	> 100 µM				> 100 µM
COC(=O)/C(C#N)=C1\N=NNN1CCCN1CCOCC1		> 100 µM		> 100 µM				> 100 µM				> 100			> 100 µM	> 100 µM				> 100 µM
COc1ccc(C2=CC(c3cc(OC)c(OC)c(OC)c3)n3ncnc3N2)cc1 (centres undefined)	0.0672	> 100 µM	11.3	37.3 µM	0.502	> 100 µM	0.0324	0.654 µM	0.391	39.5 µM			0.0833	29.7 µM	> 100 µM	> 100 µM	0.0788	10.9	0.0427	0.374 µM
CC(CS(=O)(=O)Cc1ccccc1)C(N)=O (centres undefined)		> 100 µM		> 100 µM		> 100 µM		> 100 µM		> 100 µM				> 100 µM	> 100 µM	> 100 µM				> 100 µM
Cc1ccc(NCSc2ccc(Cl)cc2)cc1	46.9	> 100 µM			> 100	> 100 µM	21.9	> 100 µM	5.06	> 100 µM	30.4	> 100	13.1	> 100 µM	> 100 µM	> 100 µM	31.4	> 100	> 100	> 100 µM
Cn1c(=O)c2c3oc(=O)cc(O)c3c(=O)n3c4ccccc4n(c1=O)c23		> 100 µM		95.9 µM		> 100 µM				> 100 µM		> 100		> 100 µM	> 100 µM					81 µM
Cc1nnc2n1N=C(CC(=O)c1ccc(O)cc1O)CN2N		> 100 µM				> 100 µM				> 100 µM		> 100		> 100 µM	> 100 µM	> 100 µM				> 100 µM
CCOC(=O)CCC1(C(=O)OC)CCCC1=O (centres undefined)		> 100 µM		> 100 µM		> 100 µM		> 100 µM				> 100		> 100 µM	> 100 µM	> 100 µM				> 100 µM
Cc1nn(-c2ccccc2)c2c1C1C(=C(c3ccc(Cl)cc3)N2)C(=O)Nc2ccccc21 (centres undefined)	5.28	> 100 µM			2.27	7.68 µM	1.78	3.86 µM	5.33	> 100 µM	2.19	6.7	5.17	> 100 µM		62.1 µM		4.65	1.88	4.31 µM
COc1ccc2cccc(C(=N)c3ccc(C)c4c3CCC4)c2c1		23.3 µM				18.9 µM		10.1 µM		24.9 µM		26.3		31.8 µM	30.1 µM	26.9 µM				14.8 µM
CC(=O)NC1C(OCc2ccccc2)OC(COC(=O)CCCCCCCCCCNC(=O)c2cccc3c(=O)c4ccccc4[nH]c23)C(O)C1OC(C)C(=O)NC(C)C(=O)NC(CCC(N)=O)C(N)=O (centres undefined)		> 100 µM				> 100 µM		> 100 µM		> 100 µM				> 100 µM	> 100 µM	> 100 µM				> 100 µM
O=C1C=C(Nc2cccc(Br)c2)c2ccccc2C1=O	6.56	> 100 µM			14.5	34.3 µM	4.79	60.1 µM	11	63.2 µM	3.27	22.4	9.01	> 100 µM		61.4 µM		8.76	1.2	10.5 µM
CCCCCCCCCCCCCCCC[N+]1(CC)CCCC1			0.227	1.33 µM	0.439	1.81 µM			0.315	2.25 µM			0.454	1.68 µM		2.81 µM		1.18	0.4	1.52 µM
Cc1cc(N(CCC#N)S(=O)(=O)c2ccccc2)ccc1C=O		> 100 µM				> 100 µM		> 100 µM		> 100 µM		> 100		> 100 µM	> 100 µM	> 100 µM				> 100 µM
O=C1c2c(O)cccc2C(C(=O)CCCCC(=O)C2c3cccc(O)c3C(=O)c3c(O)cccc32)c2cccc(O)c21	0.529	1.35 µM and 1.89 µM	1.3	1.69 µM and 2.8 µM	0.961	1.22 µM and 1.85 µM	1.25	1.07 µM and 2.92 µM	1.21	1.74 µM and 2.31 µM			2.25	2.39 µM and 6.86 µM	1.64 µM and 3.68 µM	2.5 µM and 3.27 µM	1.55	1.54	1.09	0.921 µM and 2.04 µM
O=C1[C@H]2C(c3ccccc3)=NN(C(=O)c3ccccc3)[C@H]2C(=O)N1c1ccccc1		> 100 µM						> 100 µM				> 100			> 100 µM	> 100 µM				
